≈ marks a conversion by molar mass, not a printed value.
Assays:
AsPc-1 cells [1] = assay: Synergistic assay (checkerboard), 11 and Paclitaxel; format: cell-based
Procedure: (§1) The FIC index was calculated according to the following equation. ΣFIC=FICA+FICB=CA/MICA+CB/MICB where MICA and MICB are MIC of drugs A and B, CA and CB are the concentrations of drugs A and B used in combination. In these interaction studies, ΣFIC of less than 0.5 represents synergistic activity.

Panc-1 = assay: Cytotoxicity MTT assay, Panc-1; format: cell-based; settings: Homo sapiens, PANC-1; read-out: Cytotoxicity IC50 Panc-1
Procedure: (§2) Selected molecules were tested for cytotoxicity (IC50) in cancer and healthy cells via a MTT colorimetric assay.
(§3) Each cell was cultured in recommended medium by ATCC, and the IC50 data were obtained with each cell line.

Panc-1 cells [2] = assay: Cell viability assay (FIG. 5), Panc-1; format: cell-based; settings: after about 3 days; 0.44 μM, 1.77 μM, and 7.08 μM
Procedure: (§4) The cytotoxic activity of 11 against AsPc-1 and Panc-1 cells was also measured through cell viability assays (FIG. 5). […] Similarly, the percentage of viable Panc-1 cells was near-zero after about 3 days in the presence of 11 (0.44 μM, 1.77 μM, and 7.08 μM).

MDA-MB-435S = assay: Cytotoxicity MTT assay, MDA-MB-435S; format: cell-based; settings: Homo sapiens, MDA-MB-435S; read-out: Cytotoxicity IC50 MDA-MB-435S
Procedure: as §2, §3

C. difficile ATCC43596 = assay: Minimum inhibitory concentration assay
DPAGT1 = DPAGT1 (Homo sapiens (Human), UniProt Q9H3H5); assay: DPAGT1 inhibition (FIG. 6); format: biochemical
Sequence of DPAGT1 (Q9H3H5 whole entry, looked up): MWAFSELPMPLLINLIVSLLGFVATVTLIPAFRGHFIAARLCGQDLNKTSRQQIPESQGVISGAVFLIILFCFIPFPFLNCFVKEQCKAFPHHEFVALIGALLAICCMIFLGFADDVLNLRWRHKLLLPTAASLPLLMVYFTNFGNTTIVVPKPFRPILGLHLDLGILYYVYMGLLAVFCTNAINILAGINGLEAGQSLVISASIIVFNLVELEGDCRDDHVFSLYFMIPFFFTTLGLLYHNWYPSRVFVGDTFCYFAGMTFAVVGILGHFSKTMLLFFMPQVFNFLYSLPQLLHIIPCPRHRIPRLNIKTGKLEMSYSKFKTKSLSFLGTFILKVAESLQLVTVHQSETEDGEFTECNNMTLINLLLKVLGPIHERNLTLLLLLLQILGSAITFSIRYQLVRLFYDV

B. subtilis = assay: Antibacterial activity (FIG. 4), B. subtilis; format: cell-based
[3] = Cytotoxicity MTT assay, HepG2; format: cell-based; settings: human
HPAF-II = assay: Cytotoxicity MTT assay, HPAF-II; format: cell-based; settings: Homo sapiens, HPAF-II; read-out: Cytotoxicity IC50 HPAF-II
Procedure: as §2, §3

C. perfringens = format: cell-based; settings: FIG. 4
Water solubility = format: physicochemical
SK-OV-3 = assay: Cytotoxicity MTT assay, SK-OV-3; format: cell-based; settings: Homo sapiens, SK-OV-3; read-out: Cytotoxicity IC50 SK-OV-3
Procedure: as §2, §3

Caco-2 = assay: Cytotoxicity MTT assay, Caco-2; format: cell-based; settings: Homo sapiens, Caco-2; read-out: Cytotoxicity IC50 Caco-2
Procedure: as §2, §3

L12210 = assay: Cytotoxicity MTT assay, L12210; format: cell-based; settings: read-out: Cytotoxicity IC50 L12210
Procedure: as §2, §3

LoVo = assay: Cytotoxicity MTT assay, LoVo; format: cell-based; settings: Homo sapiens, LoVo; read-out: Cytotoxicity IC50 LoVo
Procedure: as §2, §3

Panc-1 cells [4] = assay: Boyden Chamber migration assay, Panc-1; format: cell-based; settings: FIG. 7, versus Gemcitabine, Taxol, Tunicamycin
HCT 116 = assay: Cytotoxicity MTT assay, HCT 116; format: cell-based; settings: Homo sapiens, HCT-116, read-out: Cytotoxicity IC50 HCT 116
Procedure: as §2, §3

AsPc-1 cells [5] = assay: Cell viability assay (FIG. 5), AsPc-1; format: cell-based; settings: after 4 days; 1.77 μM, 3.54 μM, and 14.17 μM
Procedure: as §4

C. difficile spores = assay: Spore viability testing; format: cell-based; settings: x2 MIC, 24 hours
Hemolysis, sheep blood = format: cell-based; settings: sheep, sheep blood
sheep blood = assay: Hemolysis, sheep blood; format: cell-based
AsPc-1 cells [6] = assay: Synergistic assay (checkerboard), 11 and Gemcitabine; format: cell-based
Procedure: as §1
These experiments were performed in the same manner as those of Example 7.

AsPc-1 = assay: Cytotoxicity MTT assay, AsPc-1; format: cell-based; settings: Homo sapiens, ASPC1; read-out: Cytotoxicity IC50 AsPc-1
Procedure: as §2, §3

[7] = test system: N-glycosylation of β-catenin; assay: Western blot, N-glycosylation of β-catenin (FIG. 6); format: cell-based; settings: concentrations as low as
[8] = Homo sapiens, ASPC1, 11 alone, AsPc-1 cells, read-out: IC50 A

With `NC[C@H]1O[C@@H](O[C@H]([C@H]2O[C@@H](n3ccc(=O)[nH]c3=O)[C@H](O)[C@@H]2O)[C@H](NCCCC(=O)NCc2ccc(N3CCC(Oc4ccc(C(F)(F)F)cc4)CC3)cc2)C(N)=O)[C@H](O)[C@@H]1O` [Compound 11] the “Σ FIC” value (AsPc-1 cells [1]; Entry 1: A 11 CA 14.2 nM + B Paclitaxel CB 0.4 nM) was 0.224, the “Σ FIC” value (AsPc-1 cells [1]; Entry 2: A 11 CA 14 nM + B Paclitaxel CB 0.88 nM) was 0.16 and the “Σ FIC” value (AsPc-1 cells [1]; Entry 3: A 11 CA 14 nM + B Paclitaxel CB 7 nM) was 0.27. The “Σ FIC” value (AsPc-1 cells [1]; Entry 4: A 11 CA 220 nM + B Paclitaxel CB 40 nM) was 0.224, the “Σ FIC” value (AsPc-1 cells [1]; Entry 5: A 11 CA 110 nM + B Paclitaxel CB 88 nM) was 0.114 and the IC50 (AsPc-1 cells [1]; [8]) was 982 nM. The “Effect of combination of 11 and Taxol” value (AsPc-1 cells [1]; all five combinations) was “synergistic effect”, the IC50 (Panc-1) was < 98 nM and the “Percentage of viable Panc-1 cells” value (Panc-1 cells [2]) was “near-zero”. The IC50 (MDA-MB-435S) was 7090 nM, the Anti-C. difficile activity (C. difficile ATCC43596) was “display anti-C. difficile activity” and the MIC (C. difficile ATCC43596; Clostridioides difficile, ATCC43596, 48 h, read-out: C. difficile ATCC43596 MIC) was 3.25 µg/mL (≈ 0.00375 mM). For the same compound, the “Antibacterial activity against C. difficile” value (C. difficile ATCC43596; FIG. 4) was “displayed antibacterial activity”, the IC50 (DPAGT1) was 260 nM and the “Antibacterial activity against B. subtilis” value (B. subtilis) was “displayed antibacterial activity”. For the same compound, the IC50 [3] was > 60000 nM, the IC50 (HPAF-II) was < 98 nM and the “Antibacterial activity against C. perfringens” value (C. perfringens) was “displayed antibacterial activity”. The “Water solubility, times greater than 10” value (Water solubility; relative to 10) was 200 times, the solubility (Water solubility; water) was 22 mg/mL (≈ 25.4 mM) and the IC50 (SK-OV-3) was 2850 nM. The IC50 (Caco-2) was > 60000 nM, the IC50 (L12210) was > 100000 nM and the IC50 (LoVo) was 220 nM. For the same compound, the Panc-1 migratory cells (Panc-1 cells [4]) was “fewer Panc-1 migratory cells than Gemcitabine, Taxol, and Tunicamycin”, the IC50 (HCT 116) was 3540 nM and the AsPc-1 cell viability (AsPc-1 cells [5]) was “Nearly all AsPc-1 cells were killed”. The “Effect on viability of C. difficile spores (CFU)” value (C. difficile spores) was “caused loss of viability of C. difficile spores”, the IC50 (Hemolysis, sheep blood) was 206000 nM and the IC50 (sheep blood) was 206000 nM. For the same compound, the AsPc-1 cells dead/alive (AsPc-1 cells [6]; Compound 11 0.0488281 μM + Gemcitabine 0.024414 μM) was “alive”, the AsPc-1 cells dead/alive (AsPc-1 cells [6]; Compound 11 0.0488281 μM + Gemcitabine 0.048828 μM) was “alive” and the AsPc-1 cells dead/alive (AsPc-1 cells [6]; Compound 11 0.0488281 μM + Gemcitabine 0.097656 μM) was “dead”. The AsPc-1 cells dead/alive (AsPc-1 cells [6]; Compound 11 0.0488281 μM + Gemcitabine 0.195313 μM) was “dead”, the AsPc-1 cells dead/alive (AsPc-1 cells [6]; Compound 11 0.0488281 μM + Gemcitabine 0.390625 μM) was “dead” and the AsPc-1 cells dead/alive (AsPc-1 cells [6]; Compound 11 0.0976563 μM + Gemcitabine 0.024414 μM) was “alive”. For the same compound, the AsPc-1 cells dead/alive (AsPc-1 cells [6]; Compound 11 0.0976563 μM + Gemcitabine 0.048828 μM) was “alive”, the AsPc-1 cells dead/alive (AsPc-1 cells [6]; Compound 11 0.0976563 μM + Gemcitabine 0.097656 μM) was “dead” and the AsPc-1 cells dead/alive (AsPc-1 cells [6]; Compound 11 0.0976563 μM + Gemcitabine 0.195313 μM) was “dead”. The AsPc-1 cells dead/alive (AsPc-1 cells [6]; Compound 11 0.0976563 μM + Gemcitabine 0.390625 μM) was “dead”, the AsPc-1 cells dead/alive (AsPc-1 cells [6]; Compound 11 0.1953125 μM + Gemcitabine 0.024414 μM) was “alive” and the AsPc-1 cells dead/alive (AsPc-1 cells [6]; Compound 11 0.1953125 μM + Gemcitabine 0.048828 μM) was “alive”. For the same compound, the AsPc-1 cells dead/alive (AsPc-1 cells [6]; Compound 11 0.1953125 μM + Gemcitabine 0.097656 μM) was “dead”, the AsPc-1 cells dead/alive (AsPc-1 cells [6]; Compound 11 0.1953125 μM + Gemcitabine 0.195313 μM) was “dead” and the AsPc-1 cells dead/alive (AsPc-1 cells [6]; Compound 11 0.1953125 μM + Gemcitabine 0.390625 μM) was “dead”. The AsPc-1 cells dead/alive (AsPc-1 cells [6]; Compound 11 0.390625 μM + Gemcitabine 0.024414 μM) was “alive”, the AsPc-1 cells dead/alive (AsPc-1 cells [6]; Compound 11 0.390625 μM + Gemcitabine 0.048828 μM) was “alive” and the AsPc-1 cells dead/alive (AsPc-1 cells [6]; Compound 11 0.390625 μM + Gemcitabine 0.097656 μM) was “dead”. For the same compound, the AsPc-1 cells dead/alive (AsPc-1 cells [6]; Compound 11 0.390625 μM + Gemcitabine 0.195313 μM) was “dead”, the AsPc-1 cells dead/alive (AsPc-1 cells [6]; Compound 11 0.390625 μM + Gemcitabine 0.390625 μM) was “dead” and the AsPc-1 cells dead/alive (AsPc-1 cells [6]; Compound 11 0.78125 μM + Gemcitabine 0.024414 μM) was “alive”. The AsPc-1 cells dead/alive (AsPc-1 cells [6]; Compound 11 0.78125 μM + Gemcitabine 0.048828 μM) was “alive”, the AsPc-1 cells dead/alive (AsPc-1 cells [6]; Compound 11 0.78125 μM + Gemcitabine 0.097656 μM) was “dead” and the AsPc-1 cells dead/alive (AsPc-1 cells [6]; Compound 11 0.78125 μM + Gemcitabine 0.195313 μM) was “dead”. For the same compound, the AsPc-1 cells dead/alive (AsPc-1 cells [6]; Compound 11 0.78125 μM + Gemcitabine 0.390625 μM) was “dead”, the “Σ FIC” value (AsPc-1 cells [6]; Entry 1: A 11 CA […] + B Gemcitabine CB 0.37 μM) was 0.3 and the “Σ FIC” value (AsPc-1 cells [6]; Entry 2: A 11 CA 0.22 μM + B Gemcitabine CB 0.37 μM) was 0.47. For the same compound, the IC50 (AsPc-1 cells [6]; [8]) was 980 nM, the “Concentration in combination resulting in AsPc-1 cell death” value (AsPc-1 cells [6]; as low as, 11 together with Gemcitabine) was 0.0488 µM and the “Effect of combination of 11 and Gemcitabine” value (AsPc-1 cells [6]; both combinations tested) was “synergistic effect”. The IC50 (AsPc-1) was 950 nM and the “Lowest concentration inhibiting N-glycosylation of β-catenin” value [7] was 0.39 nM.
